Data set [1] relates to M. abscessus complex. As to the kind of experiment: MIC testing of CF isolates. Format: cell-based, Mycobacterium abscessus.
For data set [2], the system named is Enterococcus spp. As to the kind of experiment: Broth microdilution MIC (Example 11). Format: cell-based, E. faecalis, E. faecium. The settings on record: Lev^R Cip^R Ery^R, read-out: MIC. (In general: Broth dilution looks for growth in wells or tubes with falling amounts of substance.)
The subject of data set [3] is P. aeruginosa and A. baumannii. Conditions: P. aeruginosa MMX 103 (ATCC 27853); CLSI QC ranges shown in parenthesis; cited from earlier work.
The subject of data set [4] is S. aureus. Kind of data set: Broth microdilution MIC (Example 11). Type of data set: cell-based, Staphylococcus aureus. The settings on record: Staphylococcus aureus, ATCC 29213 / MSSA, S. aureus MMX 101 (ATCC 29213); QC; MSSA; read-out: MIC.
Data set [5] relates to Enterobacteriaceae. The settings on record: E. coli MMX 102 (ATCC 25922); CLSI QC ranges shown in parenthesis; cited from earlier work.
The subject of data set [6] is S. aureus. The settings on record: S. aureus MMX 101 (ATCC 29213); cited from earlier work.
Data set [7] concerns Gram-positive aerobic bacteria (S. aureus, MRSA, CA-MRSA). Kind of data set: MIC90 against 150 clinical isolates of Gram-positive aerobic bacteria. Format: cell-based. The settings on record: S. aureus (50 isolates).
For data set [8], the system named is vancomycin-intermediate Staphylococcus aureus (VISA). As to the kind of experiment: Broth microdilution MIC (Example 12). Format: cell-based. Conditions: Staphylococcus aureus, NRS 13 / VISA, all isolates except NRS 13; read-out: MIC values.
Data set [9] has as its system beta-hemolytic streptococci. As to the kind of experiment: Broth microdilution MIC (Example 11). Conditions: ERY^R CC^R, read-out: MIC. Type of data set: cell-based, S. pyogenes, S. agalactiae.
Data set [10] is classed as physicochemical.
Data set [11] relates to Anaerobes (Bacteroides fragilis, Clostridium difficile). Kind of data set: Agar dilution MIC (Example 11). Type of data set: cell-based. The settings on record: read-out: MIC. How it is done: The susceptibility of anaerobic bacteria was determined by agar dilution using Brucella Agar (BD/BBL; Lot No. 5237692) supplemented with 5 μg/mL hemin (Sigma, St. Louis, Mo.; Lot No. 108K1088), 1 μg/mL Vitamin K1 and 5% (v/v) laked sheep blood (Cleveland Scientific, Bath, Ohio; Lot No. 322799).
Agar Dilution MIC Testing (Anaerobic Bacteria and Gonococci): MIC values for anaerobic bacteria were determined using a reference agar dilution method as described by CLSI (6). Organisms were grown at 35° C. in the Bactron II Anaerobic Chamber (Shel Lab, Cornelius, Oreg.) for approximately 48 hr prior to the assay. Drug dilutions and drug-supplemented agar plates were prepared manually per CLSI (6). The plates were allowed to stand at room temperature for 1 hr to allow the agar surface to dry and pre-reduced for approximately 1 hr in the anaerobe chamber prior to inoculation. Each isolate was suspended to the equivalent of a 0.5 McFarland standard in Brucella broth using a turbidity meter (Dade Behring MicroScan, West Sacramento, Calif.). Each bacterial cell suspension was then diluted 1:10 in Brucella broth and transferred to wells in a stainless steel replicator block which was used to inoculate the test plates. The prongs on the replicator deliver approximately 1-2 μl of inoculum to an agar surface. The resulting inoculum spots contained approximately 1×10^5 CFU/spot. After the inoculum dried, the inoculated drug-supplemented agar plates and no drug growth control plates were incubated at 35° C. for 42-48 hr in the anaerobe chamber. The MIC was read per CLSI guidelines (6).
A general note: Agar dilution tests growth on a series of plates holding different concentrations.

For data set [12], the system named is P. aeruginosa. Kind of data set: Checkerboard FIC/FICI assay. The settings on record: Tobramycin in combination with BisEDT. Type of data set: cell-based, Pseudomonas aeruginosa.
In data set [13] the test system is Burkholderia cepacia complex. Kind of data set: Checkerboard FIC/FICI assay. Type of data set: cell-based, Burkholderia spp.
Data set [14] has as its system Pseudomonas aeruginosa strain PA01. As to the kind of experiment: Bacterial killing curves with and without CF patient sputum. Type of data set: cell-based. Conditions: tobramycin 1 μg/mL, 10% CF sputum, most time points.
The mark [15] stands for this setting: non-reversing and total heat flow.
Where [16] appears, read: P. aeruginosa 6322, one value per panel row C-G.
Where [17] appears, read: P. aeruginosa 6977, by checkerboard.
The mark [18] stands for this setting: P. aeruginosa 7745, by checkerboard.
Setting [19] is: P. aeruginosa 9108, by checkerboard.
Setting [20] is: B. cepacia 1793, Tobramycin in combination with BisEDT, by checkerboard.

Converted amounts (≈) assume the structure as drawn. “And” between values parts separate entries of the source, which are not always exact repeats. Equal values may be shown once. Read-outs that look alike come from different tables or passages of the source. Bounds are passed on as bounds.

One may read the MIC as the least concentration at which growth counts as inhibited. On to `CC[C@H]1OC(=O)[C@H](C)[C@@H](O[C@H]2C[C@@](C)(OC)[C@@H](O)[C@H](C)O2)[C@H](C)[C@@H](O[C@@H]2O[C@H](C)C[C@H](N(C)C)[C@H]2O)[C@](C)(OC)C[C@@H](C)C(=O)[C@H](C)[C@@H](O)[C@]1(C)O` [CLR], for which the MIC was 1 µg/mL (≈ 1.34 µM) in data set [1] (M. abscessus/massiliense complex (AMT0068-40)); 1 µg/mL (≈ 1.34 µM) in [1] (M. abscessus/massiliense complex (AMT0119-7)); 2 µg/mL (≈ 2.67 µM) in data set [1] (M. abscessus/massiliense complex (AMT0493-2), AMK R); 1 µg/mL (≈ 1.34 µM) in data set [1] (M. abscessus/massiliense complex (AMT01130-8)); 2 µg/mL (≈ 2.67 µM) in data set [1] (M. abscessus/massiliense complex (AMT1539)); >32^1 ^ μg/mL in data set [1] (M. abscessus/massiliense complex (ATCL119977), Macrolide R (inducible)).

Take `CC(C)(O/N=C(\C(=O)N[C@@H]1C(=O)N2C(C(=O)[O-])=C(C[n+]3ccccc3)CS[C@H]12)c1csc(N)n1)C(=O)O` [Ceftazidime]: the MIC in data set [2] (E. faecalis MMX 8960, VRE) is above 32 µg/mL; in data set [2] (E. faecalis MMX 8961, VRE), above 32 µg/mL; in [2] (E. faecalis MMX 8962, VRE), above 32 µg/mL; in [2] (E. faecium MMX 485, VRE vanA), above 32 µg/mL; in data set [2] (E. faecium MMX 752, VRE vanA) it was above 32 µg/mL; in [4], 8 µg/mL (≈ 14.6 µM). The “MIC, CLSI QC range” value in [3] was “(1-4) μg/mL”; in [5] it was “(0.06-0.5) μg/mL”. In addition, the “CLSI QC range of MIC” value in data set [6] was “(4-16) μg/mL”.

As a reminder, the MIC90 is an inhibitory concentration at the 90% level, which refers to growth in some studies and to a panel of isolates in others. A higher MIC90 goes with lower susceptibility. As for `C[C@@H](O)[C@H]1C(=O)N2C(C(=O)O)=C(SCCN=CN)C[C@H]12` [IPM], the MIC90 is 2 µg/mL (≈ 6.68 µM) in data set [7] (CA-MRSA), above 8 µg/mL in [7] (MRSA) and 0.03 µg/mL (≈ 0.1 µM) in [7] (MSSA).

Take `C[C@H]1COc2c(N3CCN(C)CC3)c(F)cc3c(=O)c(C(=O)O)cn1c23` [Levofloxacin, reference compound]: the MIC in [8] is above 4 µg/mL; in data set [2] (E. faecalis MMX 8960, VRE), 32 µg/mL (≈ 88.6 µM); in data set [2] (E. faecalis MMX 8961, VRE) it was 64 µg/mL (≈ 177 µM); in data set [2] (E. faecalis MMX 8962, VRE), 64 µg/mL (≈ 177 µM); in data set [2] (E. faecium MMX 485, VRE vanA), above 64 µg/mL; in data set [2] (E. faecium MMX 752, VRE vanA) it was above 64 µg/mL. Moreover, the MIC in data set [4] came to 0.12 µg/mL (≈ 0.332 µM); in data set [9] (Streptococcus agalactiae, S. agalactiae MMX 3741), 0.25 µg/mL (≈ 0.692 µM); in data set [9] (Streptococcus pyogenes, S. pyogenes MMX 5091) it was 0.5 µg/mL (≈ 1.38 µM).

Turning to `Cc1onc(-c2ccccc2)c1C(=O)N[C@@H]1C(=O)N2[C@@H]1SC(C)(C)[C@@H]2C(=O)O` [Oxacillin], the “CLSI QC range of MIC” value in data set [6] is “(0.12-0.25) μg/mL”.

As to `C1C[S][Bi]([S]CC[S][Bi]2[S]CC[S]2)[S]1` [X-ray amorphous BisEDT], in data set [10] (Cycle 1, heat to 85° C.), the “Temperature cycling DSC: broad, weak endotherm (approximate peak max)” value was “Broad, weak endotherm at 75 °C”. Moreover, in data set [10] (Cycle 4, heat to 130° C., 10° C./min), the “Temperature cycling DSC: small endotherm (peak max)” value was “Small endotherm at 112 °C (peak max)”. In addition, the “Temperature cycling DSC: sharp exotherm (peak max)” value in data set [10] (Cycle 7, heat to 200° C., 10° C./min) was “Sharp exotherm at 160 °C (peak max)”. In [10] (conventional DSC), the “DSC: broad endotherm (peak max)” value is “Broad endotherm at 64 °C (peak max)”, the “DSC: sharp strong exotherm (peak max)” value is “Sharp strong exotherm at 168 °C”, the “DSC: small endotherm (peak max)” value was “Small endotherm at 112 °C (peak max)” and the “DSC: small exotherm (peak max)” value was “Small exotherm at 145 °C (peak max)”. In data set [10] (setting [15]), the “Modulated DSC: broad weak endotherm (peak max)” value is “Broad weak endotherm at 47 °C”, the “Modulated DSC: heat flow fluctuations” value is “Heat flow fluctuations above 140 °C”, the “Modulated DSC: small endotherm (peak max)” value is “Small endotherm at 104 °C (peak max)” and the “Modulated DSC: small exotherm (peak max)” value is “Small exotherm at 134 °C (peak max)”. Also, the “Modulated DSC: Tg (midpoint of step change)” value in data set [10] (reversing heat flow) is “Tg at 101 °C (midpoint of step change)”. Further, in data set [10] (reversing heat flow, at Tg), the “Modulated DSC: ΔCp” value was “(ΔCp 0.3 J/(g*K)”.

`CCC[C@@H]1C[C@@H](C(=O)N[C@@H]([C@H]2O[C@H](SC)[C@H](O)[C@@H](O)[C@H]2O)[C@H](C)Cl)N(C)C1` [clindamycin, reference compound]: the MIC in data set [8] is above 4 µg/mL; in data set [2] (E. faecalis MMX 8960, VRE) it was above 32 µg/mL; in [2] (E. faecalis MMX 8961, VRE) it was above 32 µg/mL; in [2] (E. faecalis MMX 8962, VRE), above 32 µg/mL; in data set [2] (E. faecium MMX 485, VRE vanA), above 32 µg/mL; in data set [2] (E. faecium MMX 752, VRE vanA), above 32 µg/mL. Besides, the MIC in data set [11] (Bacteroides fragilis, ATCC25285, B. fragilis MMX 123 (ATCC 25285), QC) was 1 µg/mL (≈ 2.35 µM); in data set [11] (C. difficile MMX 4381 (ATCC 700057), QC, CC^1), 4 µg/mL (≈ 9.41 µM); in data set [11] (C. difficile MMX 5680 (NCTC 13336), ribotype 027, CC^1 MET^R) it was 4 µg/mL (≈ 9.41 µM); in [11] (C. difficile MMX 5681 (NCTC 13307), ribotype 012, CC^R), above 64 µg/mL; in data set [11] (C. difficile MMX 8272, ribotype 255, CC^1), 4 µg/mL (≈ 9.41 µM); in data set [11] (C. difficile MMX 8279, ribotype 005, CC^R) it was above 64 µg/mL. Also, the MIC in [11] (C. difficile MMX 8281, ribotype 010, CC^R) is above 64 µg/mL; in data set [4] it was 0.12 µg/mL (≈ 0.282 µM).

As for `NC[C@H]1O[C@H](O[C@H]2[C@H](O)[C@@H](O[C@H]3O[C@H](CO)[C@@H](O)[C@H](N)[C@H]3O)[C@H](N)C[C@@H]2N)[C@H](N)C[C@@H]1O` [tobramycin, Tobramycin, reference compound], the FICB is 1 in data set [12] (setting [16]); 2 in [12] (setting [17]); 1 in [12] (setting [18]); 1 in data set [12] (setting [19]); 0.25 and 0.5 in data set [13] (B. cenocepacia 548, FIC of Tobramycin (Drug B) in combination with BisEDT); 0.5 and 1 in data set [13] (B. cenocepacia 813, FIC of Tobramycin (Drug B) in combination with BisEDT). The FICB was 0.5 and 1 in data set [13] (setting [20]); 1 in [13] (B. multivorans 1795, FIC of Tobramycin (Drug B) in combination with BisEDT). The MICB in data set [12] (setting [16]) was 128 µg/mL; in data set [12] (setting [17]) it was 256 µg/mL; in data set [12] (setting [18]), 0.5 µg/mL; in data set [12] (setting [19]), 0.0005 µg/mL; in data set [13] (B. cenocepacia 548, MIC of Tobramycin (Drug B) in combination with BisEDT), 8 µg/mL and 16 µg/mL; in data set [13] (setting [20]), 8 µg/mL and 16 µg/mL. Besides, in data set [13] (B. multivorans 1795, MIC of Tobramycin (Drug B) in combination with BisEDT), the MICB is above 256 µg/mL. Also, in [14], the “CFU higher in cultures with sputum vs without” value was 0.5-1 log CFU/mL.
